According to patent US9535057B2, “Method of in vivo screening for cardiac toxic agents using teleost” (CITY UNIVERSITY OF HONG KONG, priority 2007, dated 2017):

Test system: zebrafish embryos
Assay: Cardiotoxicity screen in zebrafish embryos: heart rate and heart beat rhythm from video of blood circulation with power spectral analysis, and by direct examination of heart
Format: in vivo
Settings: 48-hpf zebrafish embryos, 2 μM haloperidol in egg medium, 4 hour incubation; direct examination of heart and power spectral analysis (FIG. 7); p<0.05 vs control
Excerpt: Before videoing blood cell circulation, the teleost is immobilized on a surface, for example, glass slide or plastic petri dish. Immobilization medium can be agarose, agar or methyl-cellulose. The optimal concentration of agarose or agar used is 0.5% (w/v) or lower. The concentration of methyl-cellulose used is 2-4% (w/v). Teleosts should be oriented in their spontaneous lateral position.
A video imaging system consists of a microscope, either stereomicroscope or conventional light microscope, with low magnification objective (FIG. 1). […] Video recorded in medium, e.g. VCR tape or mini DV tape, or recorded in personal computer is converted back to readable format, such as AVI or WMV format, and stored in personal computer for further video image analysis. […]
Data analysis of the series of the amount of differential pixels obtained from video image analysis is performed by methods implemented in the home-made software. Data series of amount of differential pixels is analyzed by comprising power spectral analysis in which data series of differential pixels is decomposed by discrete Fourier transform. […] A total power value of the spectrum is calculated. […]
The embodiment is tested in wild type embryos at 52 hpf. […] Heart rate is determined from direct visual counting of the number of heart beats in 1 min. […] In addition, the cardiac rhythm is determined as the standard deviation of heart beat time interval. […]

O=C(CCCN1CCC(O)(c2ccc(Cl)cc2)CC1)c1ccc(F)cc1 [haloperidol]
heart rate: significantly decreased
